Structures are written as SMILES. Where “and” joins values, the source holds several entries; their conditions need not be identical. Identical values can stand only once.

For one experiment, the target named is T1, RavR^ΔEAL (Xanthomonas campestris pv. campestris, UniProt Q8P9A7).
T1 sequence (Q8P9A7 with tags, fused parts or gaps): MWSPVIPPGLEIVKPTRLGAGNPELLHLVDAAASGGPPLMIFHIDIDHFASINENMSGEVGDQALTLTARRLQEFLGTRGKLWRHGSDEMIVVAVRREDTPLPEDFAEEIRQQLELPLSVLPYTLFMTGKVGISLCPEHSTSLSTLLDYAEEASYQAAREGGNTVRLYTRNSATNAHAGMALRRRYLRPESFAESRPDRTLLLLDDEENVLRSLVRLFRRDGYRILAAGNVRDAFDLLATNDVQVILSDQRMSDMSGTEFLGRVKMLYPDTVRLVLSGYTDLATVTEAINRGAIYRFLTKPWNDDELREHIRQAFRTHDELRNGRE
The experiment is described as follows: microscale thermophoresis (MST) binding. To be noted: 20 nM fluorescein-labelled nucleotide, read-out: dissociation constant (Kd). Background: In MST a laser heats a spot of the sample, and binding alters the fluorescence response.

The target of the next experiment is T2, RavS^ΔN (Xanthomonas campestris pv. campestris, UniProt Q8P9A6).
T2 sequence (Q8P9A6 352-697): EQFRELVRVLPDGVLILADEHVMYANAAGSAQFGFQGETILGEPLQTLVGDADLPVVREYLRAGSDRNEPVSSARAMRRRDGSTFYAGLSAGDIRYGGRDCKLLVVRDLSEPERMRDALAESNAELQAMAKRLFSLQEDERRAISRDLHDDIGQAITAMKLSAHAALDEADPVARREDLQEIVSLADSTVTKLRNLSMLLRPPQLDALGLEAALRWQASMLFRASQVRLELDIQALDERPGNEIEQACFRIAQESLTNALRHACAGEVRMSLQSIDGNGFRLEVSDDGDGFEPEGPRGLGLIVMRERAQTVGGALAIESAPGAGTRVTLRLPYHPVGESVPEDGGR
Put plainly: in vitro autophosphorylation assay. To be noted: 100 μM c-di-GMP, no RavR added. The experiment is classed as biochemical. Here is the method:
(a) c-di-GMP enhances RavS-RavR phosphotransfer in vitro. A total of 5 μM RavS^ΔN was autophosphorylated for 15 min by the addition of 10 μCi [γ-^32P]ATP. A total of 15 μM RavR^ΔEAL or RavR^ΔEAL(D496A) was added and incubated for 30 min at 25°C. A total of 100 μM c-di-GMP was added if necessary. The reactions were terminated with 5× SDS loading buffer before autoradiography. The experiment was repeated three times. (b) Time course analyses of the impact of c-di-GMP on the velocity of RavS-RavR phosphotransfer. The autophosphorylation and phosphotransfer reactions were set as mentioned in (a). Various concentrations of c-di-GMP were added to the reactions and isotopic signals (band intensities) of RavS~P were measured after autoradiography. (c–d) c-di-GMP triggered an increase in RavS-RavR phosphotransfer in a dose-dependent manner. […] (d) The phosphorylated level of RavS^ΔN~P was quantified by ImageJ and the EC50 value was estimated by Origin 8.5 software. […] The interaction between RavS^ΔTrM and various nucleotides, including fl-c-di-GMP, fl-cGMP and fl-c-di-AMP, were measured by microscale thermophoresis (MST). A total of 20 nM fluorescein-labelled nucleotides and increasing concentrations of proteins were incubated and measured by MST. The dissociation constant (Kd) was quantified to estimate the binding affinity. […]

As to `Nc1nc2c(ncn2[C@@H]2O[C@@H]3COP(=O)(O)O[C@H]4[C@@H](OC(=O)NCCCCCCNC(=O)c5ccc6c(c5)C(=O)OC65c6ccc(O)cc6Oc6cc(O)ccc65)[C@H](n5cnc6c(=O)[nH]c(N)nc65)O[C@@H]4COP(=O)(O)O[C@H]3[C@H]2O)c(=O)[nH]1` [fl-c-di-GMP, 2′-Fluo-AHC-c-di-GMP], on RavR^ΔEAL, the Kd is 111 µM and > 80 µM.
For the molecule `Nc1nc2c(ncn2[C@@H]2O[C@@H]3COP(=O)(O)O[C@H]4[C@@H](O)[C@H](n5cnc6c(=O)[nH]c(N)nc65)O[C@@H]4COP(=O)(O)O[C@H]3[C@H]2O)c(=O)[nH]1` [c-di-GMP, Cyclic di-GMP], the “effect on RavS^ΔN autophosphorylation (autokinase activity)” value at RavS^ΔN is reported as “does not affect”.

As a reminder, the Kd is the free concentration of one partner at which half of the binding sites on the other are occupied at equilibrium, for simple one-to-one binding.

The values above are taken from publication PMC6707612, “Cyclic-di-GMP binds to histidine kinase RavS to control RavS-RavR phosphotransfer and regulates the bacterial lifestyle transition between virulence and swimming” (PLoS Pathogens, 2019).
